Test results: the supplement of paper PMC11061612

Legend:
Test in all cases: combination Emax (second highest fraction inhibited in the dose matrix, 72 h); higher = more inhibition; extreme values may be limits of the assay
[1] = system: Becker (Low Grade Glioma)
How it was run: (§1)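 Cell lines grown in DMEM/F12 or RPMI with 10% FBS were plated in 1536-well plates and held 24 hours at 37°C, 5% CO2 before 72 hours of exposure to two-drug dose matrices, with DMSO typically at 0.2%. CellTiter-Glo 2.0 luminescence gave viability, which was converted to inhibition. Vehicle wells were set to 0 and blank wells to 1. Combination Emax is the second-highest inhibition in the matrix, and Bliss excess is the observed combination effect minus the expected EA + EB − EA·EB, where EA and EB are the single-agent effects.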

[2] = system: JHH-1 (Hepatocellular Carcinoma)
How it was run: as §1

[3] = system: SJRH30 (Rhabdomyosarcoma)
How it was run: as §1

[4] = system: NCI-H1155 (Non-Small Cell Lung Carcinoma)
How it was run: as §1

[5] = system: LAMA-84 (Chronic Myelogenous Leukemia)
How it was run: as §1

HuO-3N1 (Osteosarcoma) = system: HuO-3N1 (Osteosarcoma)
How it was run: as §1

[6] = system: NCI-H196 (Small Cell Lung Carcinoma)
How it was run: as §1

[7] = system: CML-T1 (Chronic Myelogenous Leukemia)
How it was run: as §1

[8] = system: NCI-H810 (Non-Small Cell Lung Carcinoma)
How it was run: as §1

[9] = system: AN3-CA (Endometrial Carcinoma)
How it was run: as §1

[10] = system: PC-14 (Lung Adenocarcinoma)
How it was run: as §1

KYM-1 (Rhabdomyosarcoma) = system: KYM-1 (Rhabdomyosarcoma)
How it was run: as §1

ES-2 (Ovarian Carcinoma) = system: ES-2 (Ovarian Carcinoma)
How it was run: as §1

[11] = system: KYSE-70 (Esophageal Squamous Cell Carcinoma)
How it was run: as §1

[12] = system: OV-90 (Ovarian Carcinoma)
How it was run: as §1

RT4 (Bladder Carcinoma) = system: RT4 (Bladder Carcinoma)
How it was run: as §1

[13] = system: Calu-6 (Non-Small Cell Lung Carcinoma)
How it was run: as §1

[14] = system: RMG-I (Ovarian Carcinoma)
How it was run: as §1

[15] = system: HSC-3 (Oral Cavity Carcinoma)
How it was run: as §1

[16] = system: SK-MM-2 (Plasma Cell Myeloma)
How it was run: as §1

SMILES | combination Emax [1] | combination Emax [2] | combination Emax [3] | combination Emax [4] | combination Emax [5] | combination Emax (HuO-3N1 (Osteosarcoma)) | combination Emax [6] | combination Emax [7] | combination Emax [8] | combination Emax [9] | combination Emax [10] | combination Emax (KYM-1 (Rhabdomyosarcoma)) | combination Emax (ES-2 (Ovarian Carcinoma)) | combination Emax [11] | combination Emax [12] | combination Emax (RT4 (Bladder Carcinoma)) | combination Emax [13] | combination Emax [14] | combination Emax [15] | combination Emax [16]
COc1nnc2ccc(N3CCC(c4ccc(OCCN5CCN(C)C(=O)[C@H]5C)cc4)CC3)nn12 [AZD5153] + CC1(C)CCC(CN2CCN(c3ccc(C(=O)NS(=O)(=O)c4ccc(NCC5CCOCC5)c([N+](=O)[O-])c4)c(Oc4cnc5[nH]ccc5c4)c3)CC2)=C(c2ccc(Cl)cc2)C1 [Venetoclax] (first compound max 1 µM, 7x7, partner max 1 µM) | 0.334 | 0.391 | 0.383 | 0.71 | 0.82 | 0.337 | 0.32 | 0.443 | 0.583 | 0.2 | 0.419 | 0.859 | 0.546 | 0.409 | 0.387 | 0.483 | 0.157 | 0.599 | 0.69 | 1
COc1nnc2ccc(N3CCC(c4ccc(OCCN5CCN(C)C(=O)[C@H]5C)cc4)CC3)nn12 [AZD5153] + CCN(CCO)CCCOc1ccc2c(Nc3cc(CC(=O)Nc4cccc(F)c4)[nH]n3)ncnc2c1 [AZD2811] (first compound max 1 µM, 7x7, partner max 1 µM) | 0.423 | 0.446 | 0.799 | 0.726 | 0.892 | 0.421 | 0.314 | 0.684 | 0.694 | 0.297 | 0.5 | 0.85 | 0.618 | 0.458 | 0.352 | 0.516 | 0.301 | 0.546 | 0.773 | 0.908
COc1nnc2ccc(N3CCC(c4ccc(OCCN5CCN(C)C(=O)[C@H]5C)cc4)CC3)nn12 [AZD5153] + C[C@@H]1COCCN1C2=NC(=NC(=C2)C3(CC3)[S@](=N)(=O)C)C4=C5C=CNC5=NC=C4 [AZD6738] (first compound max 1 µM, 7x7, partner max 10 µM) | 0.536 | 0.663 | 0.945 | 0.942 | 0.97 | 0.427 | 0.329 | 0.976 | 0.795 | 0.55 | 0.85 | 0.962 | 0.877 | 0.424 | 0.563 | 0.708 | 0.87 | 0.561 | 0.845 | 0.917
COc1nnc2ccc(N3CCC(c4ccc(OCCN5CCN(C)C(=O)[C@H]5C)cc4)CC3)nn12 [AZD5153] + Cc1c2c(nn1C)CSCc1cc(n(C)n1)CSc1cc(c3ccccc3c1)OCCCc1c(C(=O)O)n(C)c3c-2c(Cl)ccc13 [AZD5991] (first compound max 1 µM, 7x7, partner max 1 µM) | 0.484 | 0.906 | 0.97 | 0.646 | 0.928 | 0.628 | 0.307 | 0.523 | 0.995 | 0.544 | 0.441 | 1 | 0.654 | 0.355 | 0.365 | 0.911 | 0.24 | 0.58 | 0.778 | 0.93
COc1nnc2ccc(N3CCC(c4ccc(OCCN5CCN(C)C(=O)[C@H]5C)cc4)CC3)nn12 [AZD5153] + Cn1cnc2c(F)c(Nc3ccc(Br)cc3Cl)c(C(=O)NOCCO)cc21 [Selumetinib] (first compound max 1 µM, 7x7, partner max 10 µM) | 0.388 | 0.693 | 0.486 | 0.686 | 1 | 0.356 | 0.276 | 0.452 | 0.587 | 0.268 | 0.589 | 0.972 | 0.705 | 0.424 | 0.817 | 0.686 | 0.854 | 0.571 | 0.812 | 0.963
Cc1c2c(nn1C)CSCc1cc(n(C)n1)CSc1cc(c3ccccc3c1)OCCCc1c(C(=O)O)n(C)c3c-2c(Cl)ccc13 [AZD5991] + C1CN(CCC1(C(=O)N[C@@H](CCO)C2=CC=C(C=C2)Cl)N)C3=NC=NC4=C3C=CN4 [Capivasertib] (first compound max 1 µM, 7x7, partner max 3 µM) | 0.308 | 0.373 | 0.669 | 0.525 | 0.189 | 0.881 | 0.196 | 0.0638 | 0.286 | 0.951 | 0.26 | 0.466 | 0.196 | 0.246 | 0.241 | 0.22 | 0.192 | 0.236 | 0.728 | 0.325
Cc1c2c(nn1C)CSCc1cc(n(C)n1)CSc1cc(c3ccccc3c1)OCCCc1c(C(=O)O)n(C)c3c-2c(Cl)ccc13 [AZD5991] + C=CCn1c(=O)c2cnc(Nc3ccc(N4CCN(C)CC4)cc3)nc2n1-c1cccc(C(C)(C)O)n1 [AZD1775] (first compound max 1 µM, partner max 1 µM) | 0.224 | 0.721 | 0.912 | 0.786 | 0.968 | 1 | 0.508 | 0.938 | 0.949 | 0.637 | 0.921 | 0.755 | 0.842 | 0.655 | 0.521 | 0.53 | 0.77 | 0.375 | 0.851 | 0.707
Cc1c2c(nn1C)CSCc1cc(n(C)n1)CSc1cc(c3ccccc3c1)OCCCc1c(C(=O)O)n(C)c3c-2c(Cl)ccc13 [AZD5991] + CC1(C)CCC(CN2CCN(c3ccc(C(=O)NS(=O)(=O)c4ccc(NCC5CCOCC5)c([N+](=O)[O-])c4)c(Oc4cnc5[nH]ccc5c4)c3)CC2)=C(c2ccc(Cl)cc2)C1 [Venetoclax] (first compound max 1 µM, 7x7, partner max 1 µM) | 0.124 | 0.963 | 0.588 | 0.379 | 0.183 | 0.733 | 0.23 | 0.779 | 0.533 | 0.835 | 0.245 | 0.592 | 0.241 | 0.103 | 0.246 | 0.959 | 0.215 | 0.421 | 0.466 | 1
Cc1c2c(nn1C)CSCc1cc(n(C)n1)CSc1cc(c3ccccc3c1)OCCCc1c(C(=O)O)n(C)c3c-2c(Cl)ccc13 [AZD5991] + CCN(CCO)CCCOc1ccc2c(Nc3cc(CC(=O)Nc4cccc(F)c4)[nH]n3)ncnc2c1 [AZD2811] (first compound max 1 µM, 7x7, partner max 1 µM) | 0.147 | 0.517 | 0.663 | 0.897 | 0.636 | 0.875 | 0.222 | 0.389 | 0.981 | 0.584 | 0.371 | 0.62 | 0.345 | 0.315 | 0.262 | 0.913 | 0.361 | 0.303 | 0.91 | 0.487
Cc1c2c(nn1C)CSCc1cc(n(C)n1)CSc1cc(c3ccccc3c1)OCCCc1c(C(=O)O)n(C)c3c-2c(Cl)ccc13 [AZD5991] + CN(C)CCCOc1ccc(-c2ccc3ncc4c(c3c2)n(C2CCOCC2)c(=O)n4C)cn1 [AZD0156] (first compound max 1 µM, 7x7, partner max 1 µM) | 0.141 | 0.48 | 0.544 | 0.626 | 0.177 | 0.844 | 0.205 | 0.223 | 0.474 | 0.404 | 0.236 | 0.268 | 0.313 | 0.156 | 0.209 | 0.289 | 0.282 | 0.293 | 0.873 | 0.355
Cc1c2c(nn1C)CSCc1cc(n(C)n1)CSc1cc(c3ccccc3c1)OCCCc1c(C(=O)O)n(C)c3c-2c(Cl)ccc13 [AZD5991] + C[C@@H]1COCCN1C2=NC(=NC(=C2)C3(CC3)[S@](=N)(=O)C)C4=C5C=CNC5=NC=C4 [AZD6738] (first compound max 1 µM, 7x7, partner max 10 µM) | 0.632 | 0.686 | 0.939 | 0.849 | 0.966 | 0.894 | 0.367 | 0.96 | 0.904 | 0.823 | 0.855 | 0.924 | 0.858 | 0.379 | 0.51 | 0.536 | 0.822 | 0.544 | 0.798 | 0.637
Cc1c2c(nn1C)CSCc1cc(n(C)n1)CSc1cc(c3ccccc3c1)OCCCc1c(C(=O)O)n(C)c3c-2c(Cl)ccc13 [AZD5991] + C[C@@H](Nc1cc(F)cc(F)c1)c1cc(C(=O)N(C)C)cc2c(=O)cc(N3CCOCC3)oc12 [AZD8186] (first compound max 1 µM, 7x7, partner max 3 µM) | 0.462 | 0.462 | 0.588 | 0.33 | 0.12 | 0.893 | 0.282 | 0.103 | 0.3 | 0.899 | 0.255 | 0.497 | 0.264 | 0.173 | 0.214 | 0.286 | 0.222 | 0.426 | 0.536 | 0.271
